Consider one molecule from ChEMBL document CHEMBL3832061.

One series concerns Homo sapiens. Nature of the series: (§1) Pharmacokinetic parameters for Zolmitriptan following oral administration of Zolmitriptan tablets to subjects with different healthy conditions. The format is ADME, organism-based. The settings on record: in vivo.
The nature of series [1]: as §1. The format is ADME, organism-based. The settings on record: human, in vivo.

Regarding `CN(C)CCc1c[nH]c2ccc(C[C@H]3COC(=O)N3)cc12` [ZOLMITRIPTAN], in the series with Homo sapiens, the Tmax is 3 hr [middle of 4 runs] and the Vd turned out to be 7 L/kg. For the same molecule, in series [1], the CL/F came out at 31.5 mL/min/kg. In series [1] (read-out: Excretion), the dose excreted was determined as 8%.

A word on the Tmax: it is the time from dosing to the highest level. One may read the CL/F as clearance divided by bioavailability, as obtained after extravascular dosing.
